Source: patent US11884676B2, “Substituted pyrimido[1,2-b]pyridazines as positive allosteric modulators of the muscarinic acetylcholine receptor M4” (Vanderbilt University, priority 2020, dated 2024)

Tests used:
Human M4 = molecular target: T1, Human M4 (Homo sapiens, UniProt P08173); assay: mAChR M4 cell-based functional assay (calcium flux, PAM mode); conditions: hM4-Gqi5 CHO-K1 cells; for Emax at 30 µM: CHO-K1, % ACh maximum at 30 μM; for EC50: concentration-dependent increase in the EC20 acetylcholine response
T1 construct: expressed in transfected cells
T1 sequence (P08173 1-479): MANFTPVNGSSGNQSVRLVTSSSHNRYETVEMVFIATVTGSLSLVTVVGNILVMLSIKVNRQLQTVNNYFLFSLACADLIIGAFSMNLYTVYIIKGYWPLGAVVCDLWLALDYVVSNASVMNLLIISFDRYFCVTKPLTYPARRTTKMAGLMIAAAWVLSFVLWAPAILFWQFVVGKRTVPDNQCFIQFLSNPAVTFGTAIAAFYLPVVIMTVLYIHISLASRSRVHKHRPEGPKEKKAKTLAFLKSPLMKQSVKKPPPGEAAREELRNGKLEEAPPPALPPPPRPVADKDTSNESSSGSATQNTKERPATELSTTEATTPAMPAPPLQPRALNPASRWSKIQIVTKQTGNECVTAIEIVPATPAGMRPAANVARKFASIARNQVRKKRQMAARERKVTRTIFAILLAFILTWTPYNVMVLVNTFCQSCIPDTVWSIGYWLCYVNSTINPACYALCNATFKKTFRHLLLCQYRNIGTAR
How it was run: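 CHO-K1 cells stably co-expressing human M4 and chimeric Gqi5, Fluo-4 loaded; compound added first (11-point, 1:3 CRC), then EC20 acetylcholine at 144 s and EC80 at 230 s. PAM activity read on FDSS as concentration-dependent increase of EC20 ACh calcium response; EC50 and Emax from four-parameter logistic fit.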

[1] = human, in vivo; cited from earlier work
[2] = Alzheimer's disease patients; Bodick et al. 1997; cited from earlier work
[3] = cited from earlier work

Row | Emax at 30 µM (Human M4) [%] | EC50 (Human M4) [nM] | Structure (SMILES) | other results
1 | 98 | 75 | Cc1cc2nccc(=O)n2nc1N1CCC(Oc2cc(F)c3c(c2)OCCO3)CC1 [Compound 135, 7-(4-((8-fluoro-2,3-dihydrobenzo[b][1,4]dioxin-6-yl)oxy)piperidin-1-yl)-8-methyl-4H-pyrimido[1,2-b]pyridazin-4-one] | –
2 | 97 | 73 | [2H]C1([2H])Oc2cc(OC3CCN(c4nn5c(=O)ccnc5cc4C)CC3)cc(F)c2OC1([2H])[2H] [Compound 136, 7-(4-((8-fluoro-2,3-dihydrobenzo[b][1,4]dioxin-6-yl-2,2,3,3-d4)oxy)piperidin-1-yl)-8-methyl-4H-pyrimido[1,2-b]pyridazin-4-one] | –
3 | 105 | 45 | [2H]C1([2H])CC(Oc2ccc3c(c2)OC([2H])([2H])C([2H])([2H])O3)CC([2H])([2H])N1c1nn2c(=O)ccnc2cc1C [Compound 137, 7-(4-((2,3-dihydrobenzo[b][1,4]dioxin-6-yl-2,2,3,3-d4)oxy)piperidin-1-yl-2,2,6,6-d4)-8-methyl-4H-pyrimido[1,2-b]pyridazin-4-one] | –
4 | – | – | Nc1c2c(nc3ccccc13)CCCC2 [tacrine] | elevated liver transaminases observed in patients [1]: about 30 % of patients
5 | – | – | CCCCCCOc1nsnc1C1=CCCN(C)C1 [xanomeline] | psychotic behavioral symptoms such as delusions, suspiciousness, vocal outbursts, and hallucinations [2]: reduce psychotic behavioral symptoms; activity in animal models with similar profiles to known antipsychotic drugs ([3]; Bymaster et al., Shannon et al.): active; catalepsy ([3]; animal models): without causing catalepsy
